In ChEMBL document CHEMBL3526076, “Species-dependent and receptor-selective action of bilobalide on the function of constitutive androstane receptor and pregnane X receptor” (Drug Metab Dispos, 2012):

Assays:
[1] = target: T1, Nuclear receptor subfamily 1 group I member 2 (Rattus norvegicus, UniProt Q9R1A7); assay: Activation of rat PXR expressed in rat hepatocytes coexpressing CYP3A4 at 100 uM after 24 hrs by dual luciferase reporter gene assay; format: ADME, cell-based, Hepatocyte
T1 sequence (Q9R1A7 whole entry): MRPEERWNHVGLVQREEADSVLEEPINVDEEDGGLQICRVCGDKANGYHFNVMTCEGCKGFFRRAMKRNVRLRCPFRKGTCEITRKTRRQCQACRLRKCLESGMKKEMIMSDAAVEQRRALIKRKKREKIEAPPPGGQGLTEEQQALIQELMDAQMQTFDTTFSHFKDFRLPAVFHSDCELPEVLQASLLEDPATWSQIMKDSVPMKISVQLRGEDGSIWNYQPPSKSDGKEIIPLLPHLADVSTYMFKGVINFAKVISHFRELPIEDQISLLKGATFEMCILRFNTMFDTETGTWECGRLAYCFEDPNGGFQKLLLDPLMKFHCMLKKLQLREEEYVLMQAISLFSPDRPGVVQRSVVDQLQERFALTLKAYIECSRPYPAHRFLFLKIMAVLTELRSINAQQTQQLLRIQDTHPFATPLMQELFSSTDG

HepG2 = assay: Cytotoxicity against human HepG2 cells at 1 to 100 uM after 24 hrs by lactate dehydrogenase assay; format: cell-based; conditions: hepg2, 24 h
[2] = target: T2, Nuclear receptor subfamily 1 group I member 2 (Homo sapiens, UniProt O75469); assay: Activation of PXR in human Hu1043 hepatocytes assessed as effect on CYP3A4 mRNA expression at 10 to 60 uM after 24 hrs by RT-PCR analysis; format: ADME, cell-based, Hepatocyte
T2 sequence (O75469 whole entry): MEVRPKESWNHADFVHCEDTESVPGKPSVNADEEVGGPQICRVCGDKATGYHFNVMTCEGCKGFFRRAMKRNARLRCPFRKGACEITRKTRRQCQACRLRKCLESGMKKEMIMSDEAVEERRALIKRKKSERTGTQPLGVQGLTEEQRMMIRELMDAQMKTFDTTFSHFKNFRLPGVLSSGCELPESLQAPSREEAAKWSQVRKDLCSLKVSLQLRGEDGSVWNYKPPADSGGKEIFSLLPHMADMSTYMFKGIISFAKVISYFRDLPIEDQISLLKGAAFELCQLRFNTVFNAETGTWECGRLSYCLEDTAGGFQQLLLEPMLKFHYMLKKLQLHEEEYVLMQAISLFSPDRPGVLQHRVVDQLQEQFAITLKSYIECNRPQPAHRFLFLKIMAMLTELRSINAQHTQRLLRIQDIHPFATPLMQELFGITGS

[3] = target: T3, Nuclear receptor subfamily 1 group I member 3 (Rattus norvegicus, UniProt Q9QUS1); assay: Activation of rat CAR expressed in rat hepatocytes coexpressing CYP2B1 at 30 uM after 24 hrs by dual luciferase reporter gene assay relative to phenobarbital; format: ADME, cell-based, Hepatocyte
T3 sequence (Q9QUS1 whole entry): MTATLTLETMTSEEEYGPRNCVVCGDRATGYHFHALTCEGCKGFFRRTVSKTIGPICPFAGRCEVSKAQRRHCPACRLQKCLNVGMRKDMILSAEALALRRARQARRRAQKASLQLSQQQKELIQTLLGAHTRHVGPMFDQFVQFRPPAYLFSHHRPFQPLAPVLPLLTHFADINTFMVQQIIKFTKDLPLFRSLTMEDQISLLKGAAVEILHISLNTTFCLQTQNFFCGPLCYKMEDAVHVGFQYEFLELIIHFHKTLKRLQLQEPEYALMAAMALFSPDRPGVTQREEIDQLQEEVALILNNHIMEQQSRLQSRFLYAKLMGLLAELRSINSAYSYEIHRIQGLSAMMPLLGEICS

Hepatocyte = assay: Cytotoxicity against rat hepatocytes at 1 to 100 uM after 24 hrs by lactate dehydrogenase assay; format: cell-based
PXR mRNA [4] = assay: Effect on PXR mRNA expression in human hepatocytes at 50 uM by RT-PCR analysis relative to control; format: ADME, cell-based, Hepatocyte; conditions: read-out: FC
PXR mRNA [5] = assay: Effect on PXR mRNA expression in rat hepatocytes at 10 uM by RT-PCR analysis relative to control; format: ADME, cell-based, Hepatocyte; conditions: read-out: FC
[6] = target: T3, Nuclear receptor subfamily 1 group I member 3; assay: Activation of CAR in rat hepatocytes assessed as increase in CYP2B-mediated benzyloxyresorufin O-dealkylation at 3 uM after 24 hrs by spectrofluorometric analysis relative to phenobarbital; format: ADME, cell-based, Hepatocyte
CAR mRNA [7] = assay: Effect on CAR mRNA expression in human hepatocytes at 50 uM by RT-PCR analysis relative to control; format: ADME, cell-based, Hepatocyte; conditions: read-out: FC
CAR mRNA [8] = assay: Effect on CAR mRNA expression in human hepatocytes at 10 uM by RT-PCR analysis relative to control; format: ADME, cell-based, Hepatocyte; conditions: read-out: FC
[9] = target: T4, Nuclear receptor subfamily 1 group I member 3 (Homo sapiens, UniProt Q14994); assay: Activation of CAR in human Hu1108 hepatocytes assessed as increase in CYP2B6-mediated bupropion hydroxylation at 10 to 50 uM after 24 hrs by LC-MS analysis; format: ADME, cell-based, Hepatocyte
T4 sequence (Q14994 whole entry): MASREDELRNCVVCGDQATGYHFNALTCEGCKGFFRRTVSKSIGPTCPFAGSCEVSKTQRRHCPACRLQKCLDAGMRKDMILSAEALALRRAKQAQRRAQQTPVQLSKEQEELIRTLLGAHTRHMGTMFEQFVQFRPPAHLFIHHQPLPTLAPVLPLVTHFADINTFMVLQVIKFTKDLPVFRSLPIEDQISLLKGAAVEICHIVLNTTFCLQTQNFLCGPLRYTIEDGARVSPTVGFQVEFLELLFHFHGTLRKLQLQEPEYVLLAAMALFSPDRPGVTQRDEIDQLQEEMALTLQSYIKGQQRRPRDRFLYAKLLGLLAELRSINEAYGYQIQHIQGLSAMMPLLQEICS

[10] = target: T3, Nuclear receptor subfamily 1 group I member 3; assay: Activation of rat CAR expressed in rat hepatocytes coexpressing CYP2B1 at 0.1 to 10 uM after 24 hrs by dual luciferase reporter gene assay; format: ADME, cell-based, Hepatocyte
[11] = target: T1, Nuclear receptor subfamily 1 group I member 2; assay: Activation of PXR in rat hepatocytes assessed as effect on CYP3A-mediated testosterone 6beta-hydroxylation at 1 to 30 uM after 24 hrs by HPLC analysis; format: ADME, cell-based, Hepatocyte
[12] = target: T4, Nuclear receptor subfamily 1 group I member 3; assay: Activation of CAR in human Hu1043 hepatocytes assessed as effect on CYP2B6 mRNA expression at 10 to 60 uM after 24 hrs by RT-PCR analysis; format: ADME, cell-based, Hepatocyte
CAR mRNA [13] = assay: Effect on CAR mRNA expression in rat hepatocytes at 3 uM by RT-PCR analysis relative to control; format: ADME, cell-based, Hepatocyte; conditions: read-out: FC
[14] = target: T3, Nuclear receptor subfamily 1 group I member 3; assay: Activation of rat CAR expressed in rat hepatocytes coexpressing CYP2B1 at 100 uM after 24 hrs by dual luciferase reporter gene assay relative to phenobarbital; format: ADME, cell-based, Hepatocyte
[15] = target: T4, Nuclear receptor subfamily 1 group I member 3; assay: Antagonist activity at human CAR expressed in human HepG2 cells coexpressing CYP2B6 assessed as inhibition of CITCO-induced receptor activation up to 100 uM after 24 hrs by dual luciferase reporter gene assay; format: ADME, cell-based; conditions: hepg2, 24 h
[16] = target: T3, Nuclear receptor subfamily 1 group I member 3; assay: Activation of rat CAR expressed in rat hepatocytes coexpressing CYP2B1 at 100 uM after 24 hrs by dual luciferase reporter gene assay relative to control; format: ADME, cell-based, Hepatocyte; conditions: hepatocytes, 24 h, 100 µM
[17] = target: T3, Nuclear receptor subfamily 1 group I member 3; assay: Activation of CAR in rat hepatocytes assessed as upregulation of CYP2B1 mRNA expression at 30 uM after 24 hrs by RT-PCR analysis relative to phenobarbital; format: ADME, cell-based, Hepatocyte

CC(C)(C)[C@]1(O)C[C@@H]2OC(=O)C[C@@]23C(=O)O[C@@H]2OC(=O)[C@H](O)[C@]213
Activity [1]: Not Active
Activity (HepG2): Non-toxic
Activity [2]: Not Active
Activity [3]: 189%
Activity (Hepatocyte): Non-toxic
fold induction at 50 µM (PXR mRNA [4]): 0.4
fold induction at 10 µM (PXR mRNA [5]): 1.4
Activity [6]: 44%
fold induction at 50 µM (CAR mRNA [7]): 1.4
fold induction at 10 µM (CAR mRNA [8]): 1.4
Activity [9]: Not Active
Activity [10]: Not Active
Activity [11]: Not Active
Activity [12]: Not Active
fold induction at 3 µM (CAR mRNA [13]): 1.3
Activity [14]: 115%
inhibition (INH) [15]: Not Active
Activity [16]: Active
Activity [17]: 37%
